From US10865211B2 (ENANTA PHARMACEUTICALS, INC, priority 2018, dated 2020)

Tests used:
[1] = Compound induced cellular toxicity in HepG2 cells (ATPlite); format: cell-based; settings: human, three days, ATPlite 1 Step, concentration reducing total ATP levels by 50% relative to no drug controls
Description: At day 3, post seeding cells are treated with ATPlite 1 Step according to the manufacturer's instructions.

2.2.15 cells = test: Antiviral activity in 2.2.15 cells: reduction of viral product accumulation (qPCR, HBsAg/HBeAg ELISA); format: cell-based, HBV; settings: Hepatitis B virus, 120 h, day 5 post treatment, concentration reducing viral product accumulation in cell lysates or supernatants by 50% relative to no drug controls
Description: 2.2.15 cells are passaged upon attaining confluency in DMEM/F12 media in the presence of 10% FBS, Penn/Strep, and 250 ug/mL G418. Novel compounds are 5 fold serially diluted in DMSO and added to 96 well plates containing 35,000 cells/well at a 1:200 dilution so that the final concentration of DMSO is 0.5%. On day 5, post treatment cell lysates and supernatants are harvested for analysis.
Cells are lysed using Agilent Sidestep Lysis buffer, diluted 1:100 and quantified via quantitative real time PCR. Commercially available ELISA kits are used to quantitate the viral proteins HBsAg (Alpco) or HBeAg (US Biological) by following the manufacturer's recommended protocol after diluting samples to match the linear range of their respective assays. Irrespective of readout, compound concentrations that reduce viral product accumulation in the cell lysates or supernatants by 50% relative to no drug controls (EC50) are reported; EC50 ranges are as follows: A<0.1 μM; B 0.1-1 μM; C>1 μM.

| SMILES | CC50 at 3 days [1] [µM] | EC50 (2.2.15 cells) [nM] |
| --- | --- | --- |
| CC(C)(C)[C@@H]1Cc2c(oc3c(-c4cnco4)cccc23)-c2cc(=O)c(C(=O)O)cn21 [Example 27, (S)-6-(tert-butyl)-11-(oxazol-5-yl)-2-oxo-6,7-dihydro-2H-benzofuro[2,3-a]quinolizine-3-carboxylic acid] | 10 to 25 | < 100 |
| Cn1nccc1-c1cccc2c3c(oc12)-c1cc(=O)c(C(=O)O)cn1[C@H](C(C)(C)C)C3 [Example 28, (S)-6-(tert-butyl)-11-(1-methyl-1H-pyrazol-5-yl)-2-oxo-6,7-dihydro-2H-benzofuro[2,3-a]quinolizine-3-carboxylic acid] | > 25 | < 100 |
| Cn1cc(-c2cccc3c4c(oc23)-c2cc(=O)c(C(=O)O)cn2[C@H](C(C)(C)C)C4)cn1 [Example 29, (S)-6-(tert-butyl)-11-(1-methyl-1H-pyrazol-4-yl)-2-oxo-6,7-dihydro-2H-benzofuro[2,3-a]quinolizine-3-carboxylic acid] | 10 to 25 | < 100 |
| Cn1ccc(-c2cccc3c4c(oc23)-c2cc(=O)c(C(=O)O)cn2[C@H](C(C)(C)C)C4)n1 [Example 30, (S)-6-(tert-butyl)-11-(1-methyl-1H-pyrazol-3-yl)-2-oxo-6,7-dihydro-2H-benzofuro[2,3-a]quinolizine-3-carboxylic acid] | 10 to 25 | < 100 |
| CC(C)(C)[C@@H]1Cc2c(oc3c(C#N)cccc23)-c2cc(=O)c(C(=O)O)cn21 [Example 31, (S)-6-(tert-butyl)-11-cyano-2-oxo-6,7-dihydro-2H-benzofuro[2,3-a]quinolizine-3-carboxylic acid] | > 25 | < 100 |
| CC(C)(C)[C@@H]1Cc2c(oc3c(-c4cn[nH]c4)cccc23)-c2cc(=O)c(C(=O)O)cn21 [Example 32, (S)-6-(tert-butyl)-2-oxo-11-(1H-pyrazol-4-yl)-6,7-dihydro-2H-benzofuro[2,3-a]quinolizine-3-carboxylic acid] | > 25 | < 100 |
| CC(C)(C)[C@@H]1Cc2c(oc3c(-c4ccn[nH]4)cccc23)-c2cc(=O)c(C(=O)O)cn21 [Example 33, (S)-6-(tert-butyl)-2-oxo-11-(1H-pyrazol-5-yl)-6,7-dihydro-2H-benzofuro[2,3-a]quinolizine-3-carboxylicacid] | > 25 | < 100 |
| CC(C)(C)[C@@H]1Cc2c(oc3c(-c4ccco4)cccc23)-c2cc(=O)c(C(=O)O)cn21 [Example 34, (S)-6-(tert-butyl)-11-(furan-2-yl)-2-oxo-6,7-dihydro-2H-benzofuro[2,3-a]quinolizine-3-carboxylic acid] | 10 to 25 | < 100 |
| CC(C)(C)[C@@H]1Cc2c(oc3c(-c4ccsc4)cccc23)-c2cc(=O)c(C(=O)O)cn21 [Example 35, (S)-6-(tert-butyl)-2-oxo-11-(thiophen-3-yl)-6,7-dihydro-2H-benzofuro[2,3-a]quinolizine-3-carboxylic acid] | > 25 | < 100 |
| CC(C)(C)[C@@H]1Cc2c(oc3c(N4CCC(F)(F)C4)cccc23)-c2cc(=O)c(C(=O)O)cn21 [Example 36, (S)-6-(tert-butyl)-11-(3,3-difluoropyrrolidin-1-yl)-2-oxo-6,7-dihydro-2H-benzofuro[2,3-a]quinolizine-3-carboxylic acid] | > 25 | < 100 |
| CC(C)(C)[C@@H]1Cc2c(oc3c(-c4cccs4)cccc23)-c2cc(=O)c(C(=O)O)cn21 [Example 37, (S)-6-(tert-butyl)-2-oxo-11-(thiophen-2-yl)-6,7-dihydro-2H-benzofuro[2,3-a]quinolizine-3-carboxylic acid] | > 25 | < 100 |
| CC(C)(C)[C@@H]1Cc2c(oc3c(-c4cnsc4)cccc23)-c2cc(=O)c(C(=O)O)cn21 [Example 38, (S)-6-(tert-butyl)-11-(isothiazol-4-yl)-2-oxo-6,7-dihydro-2H-benzofuro[2,3-a]quinolizine-3-carboxylic acid] | 10 to 25 | < 100 |
| CC(C)(C)[C@@H]1Cc2c(oc3c(-c4cscn4)cccc23)-c2cc(=O)c(C(=O)O)cn21 [Example 39, (S)-6-(tert-butyl)-2-oxo-11-(thiazol-4-yl)-6,7-dihydro-2H-benzofuro[2,3-a]quinolizine-3-carboxylic acid] | 10 to 25 | < 100 |
| CC(C)(C)[C@@H]1Cc2c(oc3c(-c4nccs4)cccc23)-c2cc(=O)c(C(=O)O)cn21 [Example 41, (S)-6-(tert-butyl)-2-oxo-11-(thiazol-2-yl)-6,7-dihydro-2H-benzofuro[2,3-a]quinolizine-3-carboxylic acid] | 10 to 25 | < 100 |
| CC(C)(C)[C@@H]1Cc2c(oc3c(-n4cccn4)cccc23)-c2cc(=O)c(C(=O)O)cn21 [Example 42, (S)-6-(tert-butyl)-2-oxo-11-(1H-pyrazol-1-yl)-6,7-dihydro-2H-benzofuro[2,3-a]quinolizine-3-carboxylic acid] | > 25 | < 100 |
| CC(C)(C)[C@@H]1Cc2c(oc3c(C4CC4)cccc23)-c2cc(=O)c(C(=O)O)cn21 [Example 43, (S)-6-(tert-butyl)-11-cyclopropyl-2-oxo-6,7-dihydro-2H-benzofuro[2,3-a]quinolizine-3-carboxylic acid] | 10 to 25 | < 100 |
| COc1cccc2c3c(oc12)-c1cc(=O)c(C(=O)O)cn1[C@H](C(C)(C)C)C3 [Example 45, (S)-6-(tert-butyl)-11-methoxy-2-oxo-6,7-dihydro-2H-benzofuro[2,3-a]quinolizine-3-carboxylic acid] | > 25 | < 100 |
| CC(C)(C)[C@@H]1Cc2c(oc3c(OC4COC4)cccc23)-c2cc(=O)c(C(=O)O)cn21 [Example 46, (S)-6-(tert-butyl)-11-(oxetan-3-yloxy)-2-oxo-6,7-dihydro-2H-benzofuro[2,3-a]quinolizine-3-carboxylic acid] | > 25 | < 100 |
| CC(C)(C)[C@@H]1Cc2c(oc3c(OC4CC4)cccc23)-c2cc(=O)c(C(=O)O)cn21 [Example 47, (S)-6-(tert-butyl)-11-cyclopropoxy-2-oxo-6,7-dihydro-2H-benzofuro[2,3-a]quinolizine-3-carboxylic acid] | 10 to 25 | < 100 |
| CC(C)(C)[C@@H]1Cc2c(oc3c(-c4ccoc4)cccc23)-c2c(F)c(=O)c(C(=O)O)cn21 [Example 48, (S)-6-(tert-butyl)-1-fluoro-11-(furan-3-yl)-2-oxo-6,7-dihydro-2H-benzofuro[2,3-a]quinolizine-3-carboxylic acid] | > 25 | < 100 |
| CC(C)(C)[C@@H]1Cc2c(oc3c(-c4ccco4)cccc23)-c2c(F)c(=O)c(C(=O)O)cn21 [Example 49, (S)-6-(tert-butyl)-1-fluoro-11-(furan-2-yl)-2-oxo-6,7-dihydro-2H-benzofuro[2,3-a]quinolizine-3-carboxylic acid] | > 25 | < 100 |
| CC(C)(C)[C@@H]1Cc2c(oc3c(-c4cn[nH]c4)cccc23)-c2c(F)c(=O)c(C(=O)O)cn21 [Example 50, (S)-6-(tert-butyl)-1-fluoro-2-oxo-11-(1H-pyrazol-4-yl)-6,7-dihydro-2H-benzofuro[2,3-a]quinolizine-3-carboxylic acid] | > 25 | < 100 |
| CC(C)(C)[C@@H]1Cc2c(oc3c(-c4ccn[nH]4)cccc23)-c2c(F)c(=O)c(C(=O)O)cn21 [Example 51, (S)-6-(tert-butyl)-1-fluoro-2-oxo-11-(1H-pyrazol-5-yl)-6,7-dihydro-2H-benzofuro[2,3-a]quinolizine-3-carboxylic acid] | > 25 | < 100 |
| CC(C)(C)[C@@H]1Cc2c(oc3c(-c4cnsc4)cccc23)-c2c(F)c(=O)c(C(=O)O)cn21 [Example 52, (S)-6-(tert-butyl)-1-fluoro-11-(isothiazol-4-yl)-2-oxo-6,7-dihydro-2H-benzofuro[2,3-a]quinolizine-3-carboxylic acid] | > 25 | < 100 |
| CC(C)(C)[C@@H]1Cc2c(oc3c(C#N)cccc23)-c2c(F)c(=O)c(C(=O)O)cn21 [Example 53, (S)-6-(tert-butyl)-11-cyano-1-fluoro-2-oxo-6,7-dihydro-2H-benzofuro[2,3-a]quinolizine-3-carboxylic acid] | > 25 | < 100 |
| CC(C)(C)[C@@H]1Cc2c(oc3c(-c4cccs4)cccc23)-c2c(F)c(=O)c(C(=O)O)cn21 [Example 54, (S)-6-(tert-butyl)-1-fluoro-2-oxo-11-(thiophen-2-yl)-6,7-dihydro-2H-benzofuro[2,3-a]quinolizine-3-carboxylic acid] | > 25 | < 100 |
| Cn1cc(-c2cccc3c4c(oc23)-c2c(F)c(=O)c(C(=O)O)cn2[C@H](C(C)(C)C)C4)cn1 [Example 55, (S)-6-(tert-butyl)-1-fluoro-11-(1-methyl-1H-pyrazol-4-yl)-2-oxo-6,7-dihydro-2H-benzofuro[2,3-a]quinolizine-3-carboxylic acid] | > 25 | < 100 |
| CC(C)(C)[C@@H]1Cc2c(oc3c(-c4ccsc4)cccc23)-c2c(F)c(=O)c(C(=O)O)cn21 [Example 57, (S)-6-(tert-butyl)-1-fluoro-2-oxo-11-(thiophen-3-yl)-6,7-dihydro-2H-benzofuro[2,3-a]quinolizine-3-carboxylic acid] | > 25 | < 100 |
